Measurements from patent publication US6797731B2, “Resorcinol derivatives” (Pfizer Inc., priority 2000, dated 2004).
pIC50: −log10 of the molar value.

Target: T1, human tyrosinase (Homo sapiens, UniProt P14679)
T1 construct: endogenous in cells; host or cells: SKMEL 188 human melanoma cell line (lysate)
T1 sequence (P14679 19-529): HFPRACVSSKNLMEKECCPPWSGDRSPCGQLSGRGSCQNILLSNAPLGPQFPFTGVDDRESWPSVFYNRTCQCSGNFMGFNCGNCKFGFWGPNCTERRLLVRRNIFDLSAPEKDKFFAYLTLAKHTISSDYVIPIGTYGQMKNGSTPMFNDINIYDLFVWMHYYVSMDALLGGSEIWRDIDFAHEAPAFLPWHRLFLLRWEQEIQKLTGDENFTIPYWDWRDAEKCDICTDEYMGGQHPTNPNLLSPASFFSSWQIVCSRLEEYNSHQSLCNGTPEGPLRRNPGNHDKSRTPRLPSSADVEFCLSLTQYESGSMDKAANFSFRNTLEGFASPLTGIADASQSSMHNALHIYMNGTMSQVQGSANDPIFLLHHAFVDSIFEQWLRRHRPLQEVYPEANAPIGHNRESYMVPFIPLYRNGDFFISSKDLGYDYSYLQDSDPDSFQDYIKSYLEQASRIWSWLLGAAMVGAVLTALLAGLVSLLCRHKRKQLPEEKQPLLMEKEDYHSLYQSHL
Test: Tyrosinase (DOPA oxidase) assay using cell lysate
Assay type: biochemical
Details: SKMEL 188 cell lysates; L-DOPA 100 μg/ml; incubated 8 hrs; read at 405 nm
Method: 1. Tyrosinase (DOPA Oxidase) Assay Using Cell Lysate:
Human melanoma cell line, SKMEL 188 (licensed from Memorial Sloan-Kettering), is used in the cell lysate assay and the screen. In the assay, compounds and L-dihydroxyphenylalanine (L-DOPA) (100 μg/ml) are incubated with the cell lysates containing human tyrosinase for 8 hrs before the plates are read at 405 nm.

- pIC50: ~5.70
SMILES: N[C@H](Cc1ccccc1)C(=O)O[C@H]1CC[C@H](c2ccc(O)cc2O)CC1 [Example 22, trans-4-(2,4-Dihydroxyphenyl)cyclohexyl (2R)-2-amino-3-phenylpropanoate]
